Measurements as given in PMC9500300, “Development of a novel Bruton’s tyrosine kinase inhibitor that exerts anti-cancer activities potentiates response of chemotherapeutic agents in multiple myeloma stem cell-like cells” (Frontiers in Pharmacology, 2022).
Counter-ions that a name gives are not always drawn.

Target: Bruton's tyrosine kinase (BTK) (Homo sapiens, UniProt Q06187)
Experiment: ADP-Glo in vitro kinase assay with BTK enzyme (Promega)
Assay type: biochemical

Chain of Bruton's tyrosine kinase (BTK) (Q06187 2-659): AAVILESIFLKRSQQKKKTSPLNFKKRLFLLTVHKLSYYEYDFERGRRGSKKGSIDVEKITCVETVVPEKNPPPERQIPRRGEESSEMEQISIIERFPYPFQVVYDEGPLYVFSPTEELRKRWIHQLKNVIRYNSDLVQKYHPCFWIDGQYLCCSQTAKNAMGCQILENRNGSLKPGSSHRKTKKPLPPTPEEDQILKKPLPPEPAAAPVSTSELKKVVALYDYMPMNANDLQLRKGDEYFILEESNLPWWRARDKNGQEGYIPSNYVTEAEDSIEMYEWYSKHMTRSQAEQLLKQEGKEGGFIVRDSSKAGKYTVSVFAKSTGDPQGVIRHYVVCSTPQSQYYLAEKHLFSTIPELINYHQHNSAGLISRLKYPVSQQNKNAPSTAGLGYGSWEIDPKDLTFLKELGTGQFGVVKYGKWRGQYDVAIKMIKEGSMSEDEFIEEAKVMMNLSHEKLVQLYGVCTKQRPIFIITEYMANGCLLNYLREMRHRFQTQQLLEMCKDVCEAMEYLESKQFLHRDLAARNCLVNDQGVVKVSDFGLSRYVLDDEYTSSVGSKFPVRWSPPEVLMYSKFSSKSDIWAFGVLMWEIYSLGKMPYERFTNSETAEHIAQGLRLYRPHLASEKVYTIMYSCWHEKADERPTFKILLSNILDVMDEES

Question: For `N=C(N)SCc1ccc(CN2C(=O)C(=Cc3ccc(Oc4cccc(Cl)c4Cl)cc3)c3cc([N+](=O)[O-])ccc32)cc1` [compound 6, 4-((3-(4-(2,3-dichlorophenoxy)benzylidene)-5-nitro-2-oxoindolin-1-yl)methyl) benzyl carbamimidothioate hydrobromide], which inhibition at 1 µM is on record?
Answer: 49.8%
